The values below come from ChEMBL document CHEMBL5532702, “Coumarin-furo[2,3-d]pyrimidone hybrid molecules targeting human liver cancer cells: synthesis, anticancer effect, EGFR inhibition and molecular docking studies” (RSC Med Chem, 2024).

The test system of experiment [1] is HepG2. The experiment can be described thus: Cytotoxicity against human HepG2 cells assessed as reduction in cell viability incubated for 48 hrs by CCK-8 assay. The following applies: HepG2, 48 h.
The subject of experiment [2] is HepG2. The experiment can be described thus: Inhibition of cell migration in human HepG2 cells at 5.42 to 27.10 micromol/L incubated for 24 hrs by crystal violet staining based microscopic analysis. The class given is functional. As to conditions: dose 5.42-27.1 µmol/L.
Experiment [3] relates to HepG2. The experiment is described as follows: Inhibition of cell invasion in human HepG2 cells at 5.42 to 27.10 micromol/L incubated for 24 hrs by crystal violet staining based microscopic analysis. It counts as functional. The following applies: dose 5.42-27.1 µmol/L.

Activity calls are given as the source filed them. The calls are words filed in the database; no cut-off is given here. Bounds are passed on as bounds.

One may read the IC50 as the concentration that inhibits the measured activity by half. As for `CCCCNc1nc2oc(C)c(C(=O)NN)c2c(=O)n1-c1cccc(C)c1`, the IC50 with HepG2 [1] was found to be 73.9 µM.

In the case of `Cc1oc2nc(N3CCOCC3)n(-c3ccccc3)c(=O)c2c1C(=O)NNC(=O)c1cc2ccccc2oc1=O`, in the experiment with HepG2 [1], the IC50 stood at 24.2 µM.

Consider `CCCCNc1nc2oc(C)c(C(=O)NNC(=O)c3cc4ccccc4oc3=O)c2c(=O)n1-c1ccccc1`, for which the 50% inhibitory concentration (IC50) in the experiment with HepG2 [1] is 8.74 µM.

As for `CCN(CC)c1nc2oc(C)c(C(=O)NNC(=O)c3cc4ccccc4oc3=O)c2c(=O)n1-c1cccc(C)c1`, the 50% inhibitory concentration (IC50) with HepG2 [1] worked out at 26.5 µM.

Regarding `CCCN(CCC)c1nc2oc(C)c(C(=O)NN)c2c(=O)n1-c1ccc(C)cc1`, the IC50 with HepG2 [1] is 8.53 µM.

With `CCCNc1nc2oc(C)c(C(=O)NNC(=O)c3cc4ccccc4oc3=O)c2c(=O)n1-c1ccccc1`, in the experiment on HepG2 [1], the half-inhibitory concentration (IC50) was 7.72 µM.

Turning to `CCCNc1nc2oc(C)c(C(=O)NNC(=O)c3cc4ccccc4oc3=O)c2c(=O)n1-c1cccc(C)c1`, the IC50 with HepG2 [1] was found to be 24.3 µM.

As for `CCCN(CCC)c1nc2oc(C)c(C(=O)NNC(=O)c3cc4ccccc4oc3=O)c2c(=O)n1-c1ccc(C)cc1`, the IC50 with HepG2 [1] was 22.2 µM.

For `CCN(CC)c1nc2oc(C)c(C(=O)NN)c2c(=O)n1-c1cccc(C)c1`, the IC50 in the experiment with HepG2 [1] was 36.5 µM.

Regarding `Cc1oc2nc(N3CCOCC3)n(-c3ccccc3)c(=O)c2c1C(=O)NN`, the concentration for half-maximal inhibition (IC50) in the experiment on HepG2 [1] is 45.1 µM.

Take `CCCCNc1nc2oc(C)c(C(=O)NN)c2c(=O)n1-c1ccccc1`: the IC50 in the experiment on HepG2 [1] was > 100 µM.

Consider `Cc1ccc(-n2c(N3CCOCC3)nc3oc(C)c(C(=O)NNC(=O)c4cc5ccccc5oc4=O)c3c2=O)cc1`, for which the half-inhibitory concentration (IC50) in the experiment with HepG2 [1] amounted to 40 µM.

Turning to `CCCNc1nc2oc(C)c(C(=O)NN)c2c(=O)n1-c1ccc(C)cc1`, the IC50 in the experiment with HepG2 [1] amounted to 84.1 µM.

For the compound `CCCN(CCC)c1nc2oc(C)c(C(=O)NNC(=O)c3cc4ccccc4oc3=O)c2c(=O)n1-c1ccccc1`, in the experiment on HepG2 [1], the IC50 is 14.3 µM.

For `CCCNc1nc2oc(C)c(C(=O)NN)c2c(=O)n1-c1cccc(C)c1`, in the experiment on HepG2 [1], the IC50 worked out at 58.9 µM.

With `CCCCNc1nc2oc(C)c(C(=O)NN)c2c(=O)n1-c1ccc(C)cc1`, the IC50 with HepG2 [1] was > 100 µM.

On to `CCCCNc1nc2oc(C)c(C(=O)NNC(=O)c3cc4ccccc4oc3=O)c2c(=O)n1-c1cccc(C)c1`, for which the half-maximal inhibitory concentration (IC50) with HepG2 [1] was determined as 13 µM.

Turning to `CCN(CC)c1nc2oc(C)c(C(=O)NN)c2c(=O)n1-c1ccc(C)cc1`, the inhibition entry in the experiment on HepG2 [2] and in the experiment on HepG2 [3] was “Active” throughout. Moreover, the half-inhibitory concentration (IC50) with HepG2 [1] was 17.2 µM.

With `Cc1ccc(-n2c(N3CCOCC3)nc3oc(C)c(C(=O)NN)c3c2=O)cc1`, in the experiment on HepG2 [1], the half-maximal inhibitory concentration (IC50) came to 55.9 µM.

For `CCN(CC)c1nc2oc(C)c(C(=O)NN)c2c(=O)n1-c1ccccc1`, in the experiment with HepG2 [1], the half-inhibitory concentration (IC50) was 30.7 µM.

With `CCCN(CCC)c1nc2oc(C)c(C(=O)NN)c2c(=O)n1-c1ccccc1`, the IC50 in the experiment on HepG2 [1] was 17 µM.

Consider `Cc1cccc(-n2c(N3CCOCC3)nc3oc(C)c(C(=O)NN)c3c2=O)c1`, for which the concentration for half-maximal inhibition (IC50) in the experiment with HepG2 [1] was 40.8 µM.

For `CCCNc1nc2oc(C)c(C(=O)NN)c2c(=O)n1-c1ccccc1`, the IC50 in the experiment with HepG2 [1] was determined as 69.3 µM.

Take `CCN(CC)c1nc2oc(C)c(C(=O)NNC(=O)c3cc4ccccc4oc3=O)c2c(=O)n1-c1ccc(C)cc1`: the IC50 in the experiment on HepG2 [1] is > 100 µM.

For `CCCCNc1nc2oc(C)c(C(=O)NNC(=O)c3cc4ccccc4oc3=O)c2c(=O)n1-c1ccc(C)cc1`, in the experiment on HepG2 [1], the IC50 amounted to 14.5 µM.

Take `CCN(CC)c1nc2oc(C)c(C(=O)NNC(=O)c3cc4ccccc4oc3=O)c2c(=O)n1-c1ccccc1`: the IC50 with HepG2 [1] came to 7.89 µM.

For the compound `CCCNc1nc2oc(C)c(C(=O)NNC(=O)c3cc4ccccc4oc3=O)c2c(=O)n1-c1ccc(C)cc1`, in the experiment with HepG2 [1], the half-maximal inhibitory concentration (IC50) came out at 21.8 µM.

Consider `Cc1cccc(-n2c(N3CCOCC3)nc3oc(C)c(C(=O)NNC(=O)c4cc5ccccc5oc4=O)c3c2=O)c1`, for which, in the experiment on HepG2 [1], the half-inhibitory concentration (IC50) was determined as 26.8 µM.

Take `CNC(=O)c1cc(Oc2ccc(NC(=O)Nc3ccc(Cl)c(C(F)(F)F)c3)cc2)ccn1` [SORAFENIB]: the IC50 in the experiment with HepG2 [1] was 12.3 µM.
